# ChEMBL document CHEMBL3813683, “Design, synthesis and anti-cancer activity evaluation of podophyllotoxin-norcantharidin hybrid drugs” (Bioorg Med Chem Lett, 2016)
# Active and inactive are the calls of the source. No cut-off for these calls is given here.
# Key:
# MCF7 [1] = assay: Cell cycle arrest in human MCF7 cells assessed as accumulation at G0/G1 phase at 8 uM after 24 hrs by propidium iodide staining-based flow cytometry (reference value: 64.68 to 80.32%); type: functional
# MCF7 [2] = assay: Cell cycle arrest in human MCF7 cells assessed as accumulation at S phase at 2 uM after 24 hrs by propidium iodide staining-based flow cytometry (reference value: 15.95 to 25.74%); type: functional
# MCF7 [3] = assay: Cell cycle arrest in human MCF7 cells assessed as accumulation at S phase at 4 uM after 24 hrs by propidium iodide staining-based flow cytometry (reference value: 15.95 to 25.74%); type: functional
# MCF7 [4] = assay: Cell cycle arrest in human MCF7 cells assessed as accumulation at S phase at 8 uM after 24 hrs by propidium iodide staining-based flow cytometry (reference value: 15.95 to 25.74%); type: functional
# MCF7 [5] = assay: Cell cycle arrest in human MCF7 cells assessed as accumulation at G2/M phase at 2 uM after 24 hrs by propidium iodide staining-based flow cytometry (reference value: 3.73 to 10.75%); type: functional
# MCF7 [6] = assay: Cell cycle arrest in human MCF7 cells assessed as accumulation at G2/M phase at 4 uM after 24 hrs by propidium iodide staining-based flow cytometry (reference value: 3.73 to 10.75%); type: functional
# MCF7 [7] = assay: Cell cycle arrest in human MCF7 cells assessed as accumulation at G2/M phase at 8 uM after 24 hrs by propidium iodide staining-based flow cytometry (reference value: 3.73 to 10.75%); type: functional
# MCF7 [8] = assay: Cytotoxicity against human MCF7 cells after 36 hrs by MTT assay; type: functional, cell-based; details: MCF7, 36 h
# A549 = assay: Cytotoxicity against human A549 cells after 36 hrs by MTT assay; type: functional, cell-based; details: A549, 36 h
# HeLa = assay: Cytotoxicity against human HeLa cells after 36 hrs by MTT assay; type: functional, cell-based
# [9] = Cytotoxicity against HEK293T cells after 36 hrs by MTT assay; type: cell-based; details: Homo sapiens, HEK-293T
# MCF7 [10] = assay: Induction of apoptosis in human MCF7 cells after 24 hrs by Annexin V-FITC/propidium iodide staining-based flow cytometry; type: functional, cell-based
# MCF7 [11] = assay: Induction of apoptosis in human MCF7 cells assessed as necrotic cells at 1 uM after 24 hrs by Annexin V-FITC/propidium iodide staining-based flow cytometry (reference value: 0.021 to 3.8%); type: functional
# MCF7 [12] = assay: Induction of apoptosis in human MCF7 cells assessed as necrotic cells at 2 uM after 24 hrs by Annexin V-FITC/propidium iodide staining-based flow cytometry (reference value: 0.021 to 3.8%); type: functional
# MCF7 [13] = assay: Induction of apoptosis in human MCF7 cells assessed as necrotic cells at 4 uM after 24 hrs by Annexin V-FITC/propidium iodide staining-based flow cytometry (reference value: 0.021 to 3.8%); type: functional
# MCF7 [14] = assay: Induction of apoptosis in human MCF7 cells assessed as necrotic cells at 8 uM after 24 hrs by Annexin V-FITC/propidium iodide staining-based flow cytometry (reference value: 0.021 to 3.8%); type: functional
# MCF7 [15] = assay: Induction of apoptosis in human MCF7 cells assessed as late apoptotic cells at 1 uM after 24 hrs by Annexin V-FITC/propidium iodide staining-based flow cytometry (reference value: 5.92 to 9.33%); type: functional
# MCF7 [16] = assay: Cell cycle arrest in human MCF7 cells assessed as accumulation at G0/G1 phase at 2 uM after 24 hrs by propidium iodide staining-based flow cytometry (reference value: 64.68 to 80.32%); type: functional
# MCF7 [17] = assay: Cell cycle arrest in human MCF7 cells assessed as accumulation at G0/G1 phase at 4 uM after 24 hrs by propidium iodide staining-based flow cytometry (reference value: 64.68 to 80.32%); type: functional
# MCF7 [18] = assay: Induction of apoptosis in human MCF7 cells assessed as late apoptotic cells at 2 uM after 24 hrs by Annexin V-FITC/propidium iodide staining-based flow cytometry (reference value: 5.92 to 9.33%); type: functional
# MCF7 [19] = assay: Induction of apoptosis in human MCF7 cells assessed as late apoptotic cells at 4 uM after 24 hrs by Annexin V-FITC/propidium iodide staining-based flow cytometry (reference value: 5.92 to 9.33%); type: functional
# MCF7 [20] = assay: Induction of apoptosis in human MCF7 cells assessed as late apoptotic cells at 8 uM after 24 hrs by Annexin V-FITC/propidium iodide staining-based flow cytometry (reference value: 5.92 to 9.33%); type: functional
# MCF7 [21] = assay: Induction of apoptosis in human MCF7 cells assessed as early apoptotic cells at 1 uM after 24 hrs by Annexin V-FITC/propidium iodide staining-based flow cytometry (reference value: 2.45 to 6.92%); type: functional
# MCF7 [22] = assay: Induction of apoptosis in human MCF7 cells assessed as early apoptotic cells at 2 uM after 24 hrs by Annexin V-FITC/propidium iodide staining-based flow cytometry (reference value: 2.45 to 6.92%); type: functional
# MCF7 [23] = assay: Induction of apoptosis in human MCF7 cells assessed as early apoptotic cells at 4 uM after 24 hrs by Annexin V-FITC/propidium iodide staining-based flow cytometry (reference value: 2.45 to 6.92%); type: functional
# MCF7 [24] = assay: Induction of apoptosis in human MCF7 cells assessed as early apoptotic cells at 8 uM after 24 hrs by Annexin V-FITC/propidium iodide staining-based flow cytometry (reference value: 2.45 to 6.92%); type: functional
# MCF7 [25] = assay: Induction of apoptosis in human MCF7 cells assessed as viable cells at 1 uM after 24 hrs by Annexin V-FITC/propidium iodide staining-based flow cytometry (reference value: 80 to 91.6%); type: functional; details: MCF7, 24 h, read-out: Activity
# MCF7 [26] = assay: Induction of apoptosis in human MCF7 cells assessed as viable cells at 2 uM after 24 hrs by Annexin V-FITC/propidium iodide staining-based flow cytometry (reference value: 80 to 91.6%); type: functional; details: MCF7, 24 h, read-out: Activity
# MCF7 [27] = assay: Induction of apoptosis in human MCF7 cells assessed as viable cells at 4 uM after 24 hrs by Annexin V-FITC/propidium iodide staining-based flow cytometry (reference value: 80 to 91.6%); type: functional; details: MCF7, 24 h, read-out: Activity
# MCF7 [28] = assay: Induction of apoptosis in human MCF7 cells assessed as viable cells at 8 uM after 24 hrs by Annexin V-FITC/propidium iodide staining-based flow cytometry (reference value: 80 to 91.6%); type: functional; details: MCF7, 24 h, read-out: Activity
# MCF7 [29] = assay: Upregulation of CDK1 in human MCF7 cells at 2 to 8 uM after 24 hrs by Western blot analysis; type: functional, cell-based
# MCF7 [30] = assay: Downregulation of cyclin B1 in human MCF7 cells at 2 to 8 uM after 24 hrs by Western blot analysis; type: functional, cell-based
# MCF7 [31] = assay: Induction of apoptosis in human MCF7 cells assessed as increase in PARP cleavage at 8 uM after 24 hrs by Western blot analysis; type: functional, cell-based
# Tubulin (Homo sapiens) [32] = target: T1, Tubulin (Homo sapiens) (UniProt P68371+Q9H4B7+P0DPH7+P68366+Q13509+Q71U36+P04350+Q3ZCM7+P07437+P68363+Q9BQE3+Q6PEY2+Q13885+Q9BVA1+Q9BUF5); assay: Inhibition of tubulin polymerization in human MCF7 cells assessed as alteration of interphase microtubule network at 4 uM after 24 hrs by DAPI staining-based confocal microscopic analysis; type: cell-based
# Tubulin (Homo sapiens) [33] = target: T1, Tubulin (Homo sapiens); assay: Inhibition of tubulin polymerization in human MCF7 cells assessed as alteration of interphase microtubule network at 2 uM after 24 hrs by DAPI staining-based confocal microscopic analysis; type: cell-based
smiles,measurement,setting,value
COc1cc(C2c3cc4c(cc3[C@H](OC(=O)C(Cc3ccccc3)N3C(=O)C5C6CCC(O6)C5C3=O)[C@H]3COC(=O)[C@H]23)OCO4)cc(OC)c1OC (stereo not given in full),Activity,MCF7 [1],8.17%
same,Activity,MCF7 [2],45.05%
same,Activity,MCF7 [3],43.82%
same,Activity,MCF7 [4],32.22%
same,Activity,MCF7 [5],32.33%
same,Activity,MCF7 [6],38.94%
same,Activity,MCF7 [7],59.61%
same,IC50,MCF7 [8],0.88 µM
same,IC50,A549,7.82 µM
same,IC50,HeLa,3.21 µM
same,IC50,[9],54.4 µM
same,Activity,MCF7 [10],Dose-dependent effect
same,Activity,MCF7 [11],0.021%
same,Activity,MCF7 [12],0%
same,Activity,MCF7 [13],0.03%
same,Activity,MCF7 [14],0.022%
same,Activity,MCF7 [15],14.2%
same,Activity,MCF7 [16],22.62%
same,Activity,MCF7 [17],17.24%
same,Activity,MCF7 [18],4.51%
same,Activity,MCF7 [19],6.15%
same,Activity,MCF7 [20],6.97%
same,Activity,MCF7 [21],50.3%
same,Activity,MCF7 [22],80.1%
same,Activity,MCF7 [23],73.1%
same,Activity,MCF7 [24],61.9%
same,viability at 1 µM,MCF7 [25],35.4%
same,viability at 2 µM,MCF7 [26],15.4%
same,viability at 4 µM,MCF7 [27],20.7%
same,viability at 8 µM,MCF7 [28],31.1%
same,Activity,MCF7 [29],inactive
same,Activity,MCF7 [30],Active
same,Activity,MCF7 [31],Active
same,inhibition,Tubulin (Homo sapiens) [32],Active
CC(=O)O[C@H]1C(=O)[C@@]2(C)[C@H]([C@H](OC(=O)c3ccccc3)[C@]3(O)C[C@H](OC(=O)[C@H](O)[C@@H](NC(=O)c4ccccc4)c4ccccc4)C(C)=C1C3(C)C)[C@]1(OC(C)=O)CO[C@@H]1C[C@@H]2O,inhibition,Tubulin (Homo sapiens) [33],inactive
